Where only a bound is given, the exact number is not on record here.

For the first experiment, the target named is T1, Gonadotropin-releasing hormone receptor (Rattus norvegicus, UniProt P30969).
T1 sequence (P30969 whole entry): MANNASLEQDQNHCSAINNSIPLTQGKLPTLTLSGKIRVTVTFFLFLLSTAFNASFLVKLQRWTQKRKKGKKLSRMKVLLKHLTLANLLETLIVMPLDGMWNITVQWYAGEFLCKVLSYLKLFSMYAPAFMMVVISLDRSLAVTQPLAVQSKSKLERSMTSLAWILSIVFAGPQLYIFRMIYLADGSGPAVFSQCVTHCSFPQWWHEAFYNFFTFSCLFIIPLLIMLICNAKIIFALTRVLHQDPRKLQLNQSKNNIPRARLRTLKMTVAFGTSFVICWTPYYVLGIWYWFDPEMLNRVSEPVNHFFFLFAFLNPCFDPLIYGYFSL
Briefly: Binding affinity against gonadotropin-releasing hormone receptor of rat.
`CCC(CC)OC(=O)c1cn(Cc2ccccc2F)c2c(C#N)c(-c3ccc(OC)cc3)c(CN(C)CCc3ccccn3)n2c1=O` showed a Ki of 7700 nM.

`CCC(CC)OC(=O)c1cn(Cc2ccccc2F)c2c(C#N)c(-c3ccc(OCC(C)C)cc3)c(CN(C)CCc3ccccn3)n2c1=O` yielded a Ki of 7300 nM.

With `Cc1cc(-c2c(O)nc3ccc(C(=O)Nc4ccncn4)cc3c2OCC[C@@H]2CCN2)cc(C)c1C`, the half-maximal inhibitory concentration (IC50) stood at 4 nM. This lies in the single-digit nanomolar range.

`Cc1cc(C)cc(-c2[nH]c3ccccc3c2CCNCCCCc2ccc(NS(C)(=O)=O)cc2)c1` came in with an IC50 of 170 nM.

The molecule `CN(CCc1ccccn1)Cc1c(-c2ccc(OC3CCCC3)cc2)c(C#N)c2n(Cc3ccccc3F)cc(C(=O)OC3CCCC3)c(=O)n12` registered an inhibitory constant (Ki) of 8900 nM.

Consider `CCC(CC)OC(=O)c1cn(Cc2ccccc2F)c2c(C#N)c(-c3ccc(OC4CCCC4)cc3)c(CN(C)CCc3ccccn3)n2c1=O`, for which the Ki is 7600 nM. This Ki and that of the molecule before are within 1.5-fold of each other.

In a further experiment the target is T2, Gonadotropin-releasing hormone receptor (Homo sapiens, UniProt P30968).
T2 sequence (P30968 whole entry): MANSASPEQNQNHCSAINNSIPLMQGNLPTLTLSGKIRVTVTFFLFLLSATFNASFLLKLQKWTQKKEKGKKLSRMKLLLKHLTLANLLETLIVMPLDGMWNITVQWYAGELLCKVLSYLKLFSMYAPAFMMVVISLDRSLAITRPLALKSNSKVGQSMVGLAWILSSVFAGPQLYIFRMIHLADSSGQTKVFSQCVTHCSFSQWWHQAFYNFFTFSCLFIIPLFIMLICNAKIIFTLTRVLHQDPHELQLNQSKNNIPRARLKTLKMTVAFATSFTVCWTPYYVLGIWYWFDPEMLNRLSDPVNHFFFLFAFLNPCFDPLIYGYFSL
Put plainly: Binding affinity against human GnRH receptor expressed in HEK293 cells using des-Gly10[125I]Tyr5, D-Leu, NMeLeu, Pro-NEt GnRH as radioligand. Format: cell-based.
`CCC(CC)OC(=O)c1cn(Cc2ccccc2F)c2c(C#N)c(-c3ccc(OC)cc3)c(CN(C)CCc3ccccn3)n2c1=O`: affinity was put at a Ki of 180 nM.

`CCOC(=O)c1cn(Cc2ccccc2C#N)c2c(C#N)c(-c3ccc(OC)cc3)c(CN(C)CCc3ccccn3)n2c1=O` gave an inhibition constant (Ki) of 4900 nM.

With `CCC(CC)OC(=O)c1cn(Cc2ccccc2F)c2c(C#N)c(-c3ccc(OCC(C)C)cc3)c(CN(C)CCc3ccccn3)n2c1=O`, the Ki came to 25 nM. This Ki is about 200-fold lower than that of the molecule before.

For `COc1ccc(-c2c(C#N)c3n(Cc4ccccc4F)cc(C(=O)OC(C)C)c(=O)n3c2CN(C)CCc2ccccn2)cc1`, the inhibition constant Ki came to 400 nM.

On to `COc1ccc(-c2c(C#N)c3n(Cc4ccccc4F)cc(C(=O)OC(C4CC4)C4CC4)c(=O)n3c2CN(C)CCc2ccccn2)cc1`, for which the affinity, expressed as Ki, was 2500 nM.

On to `COc1ccc(-c2c(C#N)c3n(Cc4ccccc4F)cc(C(=O)OC4CCCC4)c(=O)n3c2CN(C)CCc2ccccn2)cc1`, for which the Ki worked out at 260 nM.

Consider `CCOC(=O)c1cn(Cc2ccc(F)cc2F)c2c(C#N)c(-c3ccc(OCC(C)C)cc3)c(CN(C)CCc3ccccn3)n2c1=O`, for which the affinity, expressed as Ki, was 400 nM.

`CCOC(=O)c1cn(CC2CC2)c2c(C#N)c(-c3ccc(OC)cc3)c(CN(C)CCc3ccccn3)n2c1=O`: the Ki was more than 50000 nM.

As to `CCOC(=O)c1cn(Cc2ccccc2F)c2c(C#N)c(-c3ccc(OC)cc3)c(CN(C)CCc3ccccn3)n2c1=O`, the inhibitory constant (Ki) amounted to 500 nM.

In turn, `CCOC(=O)c1cn(Cc2ccc(F)cc2F)c2c(C#N)c(-c3ccc(OCC(C)C)cc3)c(CN(C)CCc3ccncc3)n2c1=O` registered a Ki of more than 50000 nM.

`CCOC(=O)c1cn(Cc2ccccc2Cl)c2c(C#N)c(-c3ccc(OC)cc3)c(CN(C)CCc3ccccn3)n2c1=O` returned an inhibition constant (Ki) of 8500 nM. That is a single-digit micromolar value.

Turning to `CCOC(=O)c1cn(Cc2cc(F)ccc2F)c2c(C#N)c(-c3ccc(OC)cc3)c(CN(C)CCc3ccccn3)n2c1=O`, the affinity, expressed as Ki, was 6000 nM.

Regarding `CCOC(=O)c1cn(Cc2c(F)cccc2F)c2c(C#N)c(-c3ccc(OC)cc3)c(CN(C)CCc3ccccn3)n2c1=O`, affinity was put at a Ki of 2000 nM. Against the preceding molecule, the Ki is about 3-fold lower.

Consider `CCOC(=O)c1cn(Cc2ccccc2OC)c2c(C#N)c(-c3ccc(OC)cc3)c(CN(C)CCc3ccccn3)n2c1=O`, for which the Ki is 6600 nM. This Ki lies about 3.3-fold higher than the previous one.

In turn, `CCOC(=O)c1cn(Cc2ccc(F)cc2F)c2c(C#N)c(-c3ccc(OCC(C)C)cc3)c(CN(C)CCc3cccnc3)n2c1=O` registered an inhibition constant (Ki) of 28000 nM.

Consider `CCOC(=O)c1cn(Cc2ccccc2OC)c2c(C#N)c(-c3ccc(OCC(C)C)cc3)c(CN(C)CCc3ccccn3)n2c1=O`, for which the inhibition constant (Ki) was determined as 2200 nM. Compared with the last molecule, the Ki is about 13-fold lower.

In the case of `CCOC(=O)c1cn(Cc2c(F)cccc2F)c2c(C#N)c(-c3ccc(OCC(C)C)cc3)c(CN(C)CCc3ccccn3)n2c1=O`, the Ki came to 800 nM.

On to `CCOC(=O)c1cn(Cc2ccccc2)c2c(C#N)c(-c3ccc(OC)cc3)c(CN(C)C)n2c1=O`, for which the Ki is more than 50000 nM.

Regarding `CCOC(=O)c1cn(Cc2cc(F)ccc2F)c2c(C#N)c(-c3ccc(OCC(C)C)cc3)c(CN(C)CCc3ccccn3)n2c1=O`, the inhibitory constant (Ki) turned out to be 1200 nM.

`CCOC(=O)c1cn(Cc2ccc(F)cc2F)c2c(C#N)c(-c3ccc(OCC(C)C)cc3)c(CN(C)CCc3ccccc3)n2c1=O` gave a Ki of more than 50000 nM.

`CCOC(=O)c1cn(Cc2cccc(F)c2F)c2c(C#N)c(-c3ccc(OC)cc3)c(CN(C)CCc3ccccn3)n2c1=O` registered an inhibitory constant (Ki) of 2400 nM.

`CCOC(=O)c1cn(Cc2ccccc2F)c2c(C#N)c(-c3ccc(OC)cc3)c(CN(C)Cc3ccccc3)n2c1=O` had an inhibition constant (Ki) of 1800 nM. This Ki and that of the molecule before are within 1.5-fold of each other.

The molecule `CN(CCc1ccccn1)Cc1c(-c2ccc(OC3CCCC3)cc2)c(C#N)c2n(Cc3ccccc3F)cc(C(=O)OC3CCCC3)c(=O)n12` showed a Ki of 33 nM.

On to `CCC(CC)OC(=O)c1cn(Cc2ccccc2F)c2c(C#N)c(-c3ccc(OC4CCCC4)cc3)c(CN(C)CCc3ccccn3)n2c1=O`, for which the Ki was found to be 31 nM.

Consider `CCOC(=O)c1cn(Cc2ccccc2)c2c(C#N)c(-c3ccc(OC)cc3)c(CN(C)CCc3ccccn3)n2c1=O`, for which the Ki stood at 2600 nM.

Regarding `COc1ccc(-c2c(C#N)c3n(Cc4ccccc4F)cc(C(=O)OC4CCOC4)c(=O)n3c2CN(C)CCc2ccccn2)cc1` (configuration not stated), the inhibition constant (Ki) is 2100 nM.

`CCOC(=O)c1cn(Cc2ccccc2)c2c(C#N)c(-c3ccc(OC)cc3)c(CN(C)Cc3ccccc3)n2c1=O` returned an inhibition constant Ki of 42000 nM.

With `CCOC(=O)c1cn(Cc2ccccc2F)c2c(C#N)c(-c3ccc(OCC(C)C)cc3)c(CN(C)CCc3ccccn3)n2c1=O`, the inhibition constant Ki amounted to 100 nM.

`CCOC(=O)c1cn(Cc2ccc(F)cc2F)c2c(C#N)c(-c3ccc(OC)cc3)c(CN(C)CCc3ccccn3)n2c1=O`: affinity was put at a Ki of 3700 nM.

In the next experiment the target is T2, Gonadotropin-releasing hormone receptor. Briefly: Inhibitory activity against human GnRH receptor using des-Gly10[125I]Tyr5, D-Leu, NMeLeu, Pro-NEt]GnRH radioligand.
Molecule `Cc1cc(-c2c(O)nc3ccc(C(=O)Nc4ccncn4)cc3c2OCC[C@@H]2CCN2)cc(C)c1C` had an IC50 of 0.4 nM.

In the case of `Cc1cc(C)cc(-c2[nH]c3ccccc3c2CCNCCCCc2ccc(NS(C)(=O)=O)cc2)c1`, the IC50 is 7 nM.

The term Ki denotes a dissociation constant, usually derived from enzyme kinetics or from competition with a known ligand. One may read the IC50 as the midpoint of a concentration-inhibition curve.
